# Measurements as given in patent US9016829B2, “Ink composition, ink set, and image forming method” (FUJIFILM Corporation, priority 2011, dated 2015).
# Assay: Solubility with respect to pure water
# Type: physicochemical
# Details: 25° C.
structure (smiles),measurement,value
CC(C)(O)C(=O)c1ccc(OCCO)cc1 [IRGACURE 2959],solubility with respect to pure water,water (25° C.): 7.6 g/l)
